This is an account of results in DBAASP.

The structures appear in SMILES notation. ≈ marks a conversion by molar mass, not a printed value. Bounds are passed on as bounds.

Among the test systems are Bacillus subtilis; Candida albicans; Escherichia coli; Micrococcus luteus; Proteus mirabilis; Pseudomonas aeruginosa; Saccharomyces cerevisiae; Salmonella typhimurium; Serratia marcescens; Shigella dysenteriae; Bacillus cereus; Leuconostoc lactis; Listeria innocua; Pasteurella multocida; Staphylococcus aureus; Streptococcus uberis; Escherichia coli UB1005.
What all share (assay): ≥ marks a high value that may be exact or a test limit, other limits are often not marked, values filed in µg/mL are converted to µM
Test [1] deals with Candida albicans NCYC 1467.
The subject of test [2] is Escherichia coli NCTC 10418.
In test [3] the test system is Staphylococcus aureus NCTC 10788.
In test [4] the test system is Staphylococcus epidermidis.
Test [5] has as its system Staphylococcus aureus ATCC BAA-1556.
The subject of test [6] is Bacillus subtilis CMCC 63501.
The test system of test [7] is Escherichia coli ATCC 25922.
Test [8] deals with Pseudomonas aeruginosa ATCC 27853.
Test [9] concerns Salmonella enterica subsp. enterica serovar Typhimurium ATCC 14028.
Test [10] deals with Salmonella typhimurium ATCC 7731.
In test [11] the test system is Staphylococcus aureus ATCC 29213.
Test [12] relates to Staphylococcus epidermidis ATCC 12228.
The subject of test [13] is Candida albicans ATCC 10231.
In test [14] the test system is Pseudomonas aeruginosa ATCC 15442.

On to `CC[C@H](C)[C@H](NC(=O)CNC(=O)CNC(=O)[C@H](C)NC(=O)[C@@H](NC(=O)[C@H](CCCCN)NC(=O)[C@@H]1CCCN1C(=O)[C@@H](NC(=O)[C@H](CCSC)NC(=O)[C@H](CO)NC(=O)[C@H](Cc1ccccc1)NC(=O)[C@@H](N)Cc1ccccc1)[C@@H](C)CC)[C@@H](C)CC)C(=O)N[C@@H](C)C(=O)N[C@@H](CO)C(=O)N[C@@H](CC(C)C)C(=O)N[C@H](C(=O)N[C@@H](CCCCN)C(=O)N[C@@H](CC(N)=O)C(=O)N[C@@H](CC(C)C)C(N)=O)C(C)C` [FFSMIPKIAGGIASLVKNL], for which the minimal inhibitory concentration (MIC) – broadly, the lowest concentration found to suppress growth – in [1] was 3.99 µM (≈ 8 µg/mL); in test [2], not below 63.8 µM; in test [3], 3.99 µM (≈ 8 µg/mL).
Take `CC[C@H](C)[C@H](NC(=O)CN)C(=O)N[C@@H](CC(C)C)C(=O)N[C@@H](CC(=O)O)C(=O)N[C@H](C(=O)N[C@@H](CC(C)C)C(=O)N[C@@H](CCCCN)C(=O)N[C@@H](CCC(N)=O)C(=O)N[C@@H](Cc1ccccc1)C(=O)N[C@@H](C)C(=O)N[C@@H](CCCCN)C(=O)NCC(=O)N[C@H](C(=O)NCC(=O)N[C@@H](CCCCN)C(=O)N[C@@H](CC(=O)O)C(=O)N[C@@H](CC(C)C)C(=O)N[C@H](C(=O)N[C@@H](CCCCN)C(=O)NCC(=O)N[C@@H](C)C(=O)N[C@@H](C)C(=O)N[C@@H](CCC(N)=O)C(=O)NCC(=O)N[C@H](C(=O)N[C@@H](CC(C)C)C(=O)N[C@@H](CO)C(=O)O)C(C)C)C(C)C)C(C)C)[C@@H](C)O` [GILDTLKQFAKGVGKDLVKGAAQGVLS]: the minimal inhibitory concentration (MIC) against Bacillus subtilis was 18.4 µM (≈ 50 µg/mL); in the test with Candida albicans it was more than 36.8 µM; in the test with Escherichia coli, 9.21 µM (≈ 25 µg/mL); with Micrococcus luteus, 0.921 µM (≈ 2.5 µg/mL); in the test on Proteus mirabilis, 18.4 µM (≈ 50 µg/mL); against Pseudomonas aeruginosa, 9.21 µM (≈ 25 µg/mL). The MIC is 9.21 µM (≈ 25 µg/mL) against Saccharomyces cerevisiae; 27.6 µM (≈ 75 µg/mL) against Salmonella typhimurium; not below 36.8 µM with Serratia marcescens; 9.21 µM (≈ 25 µg/mL) against Shigella dysenteriae; 18.4 µM (≈ 50 µg/mL) in [4].
Consider `CC[C@H](C)[C@H](NC(=O)[C@@H](NC(=O)[C@@H]1CCCN1C(=O)[C@@H](NC(=O)[C@@H](NC(=O)[C@H](Cc1cnc[nH]1)NC(=O)[C@@H]1CCCN1C(=O)[C@@H](NC(=O)[C@@H](NC(=O)[C@H](Cc1cnc[nH]1)NC(=O)[C@H](CCCCN)NC(=O)[C@@H](NC(=O)[C@@H](NC(=O)[C@H](CO)NC(=O)CNC(=O)[C@H](CC(C)C)NC(=O)[C@@H](NC(=O)[C@H](CO)NC(=O)[C@H](CC(C)C)NC(=O)[C@H](CC(C)C)NC(=O)CN)C(C)C)C(C)C)C(C)C)C(C)C)[C@@H](C)CC)C(C)C)C(C)C)C(C)C)C(=O)N[C@@H](C)C(=O)N[C@@H](CCC(=O)O)C(=O)N[C@@H](Cc1cnc[nH]1)C(=O)N[C@@H](CC(C)C)C(N)=O` [GLLSVLGSVVKHVIPHVVPVIAEHL], for which the MIC against Bacillus cereus was 19.1 µM (≈ 50 µg/mL); in the test with Escherichia coli, more than 38.3 µM; in the test on Leuconostoc lactis it was 1.15 µM (≈ 3 µg/mL); against Listeria innocua it was 19.1 µM (≈ 50 µg/mL); in the test with Micrococcus luteus, 4.59 µM (≈ 12 µg/mL); in the test on Pasteurella multocida it was 9.57 µM (≈ 25 µg/mL). Besides, the values for the MIC (in the test with Staphylococcus aureus; in test [4]; in the test on Streptococcus uberis) were 9.57 µM (≈ 25 µg/mL), 9.57 µM (≈ 25 µg/mL) and 19.1 µM (≈ 50 µg/mL), respectively.
In [5], `CC[C@H](C)[C@H](NC(=O)[C@H](Cc1c[nH]c2ccccc12)NC(=O)[C@H](CCCN=C(N)N)NC(=O)[C@H](CCCN=C(N)N)NC(=O)[C@H](CC(C)C)NC(=O)[C@@H](N)CCCCN)C(=O)N[C@@H](CCCN=C(N)N)C(=O)N[C@@H](Cc1c[nH]c2ccccc12)C(=O)N[C@@H](CC(C)C)C(N)=O` [KLRRWIRWL] came in with an MIC of 25 µM (≈ 33.1 µg/mL).
For `CC[C@H](C)[C@H](NC(=O)CNC(=O)[C@H](C)NC(=O)[C@H](C)NC(=O)[C@@H](NC(=O)[C@@H](NC(=O)[C@H](CC(N)=O)NC(=O)[C@@H](NC(=O)[C@H](C)NC(=O)[C@@H](NC(=O)[C@@H]1CCCN1C(=O)[C@@H](NC(=O)[C@H](CC(C)C)NC(=O)[C@@H]1CCCN1C(=O)[C@H](Cc1c[nH]c2ccccc12)NC(=O)[C@H](Cc1ccccc1)NC(=O)[C@H](CCCN=C(N)N)NC(=O)[C@@H](N)CCCCN)C(C)C)C(C)C)[C@@H](C)CC)[C@@H](C)O)C(C)C)C(=O)N[C@@H](CC(N)=O)C(N)=O` [KRFWPLVPVAINTVAAGIN], the MIC in test [6] was not below 128 µM; in test [7], more than 128 µM; with Escherichia coli UB1005, not below 128 µM; in [8] it was more than 128 µM; in test [9], more than 128 µM; in test [10], not below 128 µM. Moreover, the MIC in [11] and in test [12] was more than 128 µM each time.
Regarding `CC[C@H](C)[C@H](NC(=O)[C@H](Cc1c[nH]c2ccccc12)NC(=O)[C@H](CCCN=C(N)N)NC(=O)[C@H](CCCN=C(N)N)NC(=O)[C@H](Cc1c[nH]c2ccccc12)NC(=O)[C@@H](N)CCCCN)C(=O)N[C@@H](CCCN=C(N)N)C(N)=O` [KWRRWIR], in [5], the MIC was not below 100 µM.
In the case of `CC(C)C[C@H](NC(=O)[C@H](CC(C)C)NC(=O)[C@H](CC(C)C)NC(=O)[C@H](CC(C)C)NC(=O)[C@H](CC(C)C)NC(=O)[C@H](CCCCN)NC(=O)[C@H](CC(C)C)NC(=O)[C@@H](N)CC(C)C)C(=O)N[C@@H](CCCCN)C(N)=O` [LLKLLLLLK], in test [5], the minimum inhibitory concentration (MIC) was not below 100 µM.
The same measure, in the same setting: to `CC(C)C[C@H](NC(=O)[C@H](CC(C)C)NC(=O)[C@H](CC(C)C)NC(=O)[C@H](CC(C)C)NC(=O)[C@H](CC(C)C)NC(=O)[C@H](CC(C)C)NC(=O)[C@H](CCCCN)NC(=O)[C@H](CC(C)C)NC(=O)[C@@H](N)CC(C)C)C(N)=O` [LLKLLLLLL] belongs not below 100 µM.
In the case of `CC[C@H](C)[C@H](NC(=O)[C@H](C)NC(=O)[C@@H](N)C(C)C)C(=O)N[C@@H](C)C(=O)N[C@@H](CC(C)C)C(=O)N[C@@H](CCCCN)C(=O)N[C@@H](C)C(=O)N[C@@H](C)C(=O)N[C@@H](Cc1cnc[nH]1)C(=O)N[C@@H](Cc1ccc(O)cc1)C(=O)N[C@@H](Cc1cnc[nH]1)C(=O)N[C@H](C(=O)N[C@@H](C)C(=O)N[C@@H](CCCCN)C(=O)N[C@@H](CCC(=O)O)C(=O)O)[C@@H](C)O` [VAIALKAAHYHTAKE], the figures for the MIC in test [13], in [14] and in [11] were 78.9 µM (≈ 128 µg/mL), not below 78.9 µM and 0.154 µM (≈ 0.25 µg/mL), respectively.
In the case of `CC(C)C[C@H](NC(=O)[C@H](Cc1c[nH]c2ccccc12)NC(=O)[C@H](Cc1c[nH]c2ccccc12)NC(=O)[C@H](CC(C)C)NC(=O)[C@H](Cc1c[nH]c2ccccc12)NC(=O)[C@@H](N)Cc1c[nH]c2ccccc12)C(=O)N[C@@H](CCCN=C(N)N)C(N)=O` [WWLWWLR], the MIC in [5] is 12.5 µM (≈ 14.3 µg/mL). In other words, the double-digit micromolar range.
